For data set [1] the following is noted: cited from earlier work.
Data set [2] can be described thus: Solubility in water.

Where two headings read alike, the source gives them in different places. A value given as a limit tells only on which side of the number the result lay.

As for `CC(=O)[C@H]1CC[C@H]2[C@@H]3CC[C@H]4C[C@H](O)CC[C@]4(C)[C@H]3CC[C@]12C` [Allopregnanolone, 3α,5α-tetrahydroprogesterone], the half-life entry in data set [1] (human plasma) is “about 45 minutes”.
In the case of `CC(=O)[C@H]1CC[C@H]2[C@@H]3CC[C@H]4C[C@](C)(O)CC[C@]4(C)[C@H]3CC[C@]12C` [Ganaxolone, 3α-hydroxy, 3β-methyl-5α-pregnan-20-one], the solubility in water in data set [2] was under 1 µg/mL. For the same compound, the half-life entry in data set [1] (human plasma following oral administration) was “approximately 20 hours”. For the same compound, in data set [1] (therapeutic blood levels are reached quickly), the Tmax entry is “short”.
